From US10450295B2, “Method of using an indolinone molecule and derivatives for inhibiting liver fibrosis and hepatitis” (Acclaim BioMed USA LLC, priority 2013, dated 2019)
Entries after “also recorded” stand apart in the source; their conditions may differ.

How the values were obtained:
[1] = system: collagen type I in fibrotic liver; assay: Carbon tetrachloride liver fibrosis mouse model, immunohistological staining for collagen type I; type: in vivo, mice
Protocol: The ability of Hesperadin to inhibit collagen expressions in a liver fibrosis mouse model was then examined. To induce fibrosis in the liver, mice were injected with carbon tetrachloride, twice a week, for 6 weeks. In control group of mice, they were injected with DMSO/saline, twice a week for 2 weeks. For the experimental group of mice, they were injected with either 50 or 500 μg/kg Hesperadin after chronic carbon tetrachloride treatment. […] In contrast, following chronic carbon tetrachloride treatment, collagen type I was expressed strongly at the lobules, the portal areas, the lining of the sinusoid and around the central veins (FIGS. 12A and 12B). […] In mice of carbon tetrachloride treatment alone, collagen type I was strongly expressed in the periphery of the hepatic sinusoids. Forty female ICR mice (6 weeks old) were acquired from the MOE Key laboratory for Regenerative Medicine. To induce liver fibrosis, the mice were injected i.p. with carbon tetrachloride (1.65 ml/kg body weight suspended in 0.1 ml olive oil) twice per week for a total of 6 weeks. In the control group, mice received carbon tetrachloride injection for 6 weeks followed by DMSO or saline injections, twice a week, for two weeks. In the experimental group, mice received carbon tetrachloride for 6 weeks followed by i.p. injections of 50 μg/kg or 500 μg/kg Hesperadin, twice a week, for two weeks. […] The extent of fibrosis was scored according to Zhou, et al. (5): 1=thickened perivenular collagen and a few thin collagen septa; 2=thin septa with incomplete bridging between portal regions; 3=thin septa and extensive bridging; 4=thickened septa with complete bridging of portal regions and a nodular appearance. Collagen content was measured with a Universal Imaging (Chester, Pa.) analysis system. Briefly, trichrome-stained liver sections were analysed using an Axioskope 50 microscope (CarlZeiss Lab). […] Collagen accumulation was calculated as the percentage of the total field at ×40 magnifications that was stained blue. The arrangement and morphology of the hepatocytes will also be examined and recorded. […]

[2] = system: collagen 3A1 gene expression; assay: Real-time RT-PCR in HSC, collagen 3A1; type: cell-based, human; conditions: 0.625 μM, FIG. 8
Protocol: (§1) Human Hepatic Stellate cells (LX-2 cell line) (HSCs) were obtained from the Key Lab of Regenerative Medicine, Jinan University, Guangzhou, China, which were maintained in Dulbecco's Modified Eagle Medium (DMEM)+10% fetal calf serum and penicillin-streptomycin (100 unit/ml and 0.1 mg/ml, respectively), in 5% CO2 at 37° C. inside a humidified cell incubator. The culture medium was changed every three days. To test the effects of small molecule Hesperadin on the mouse and human HSCs, the cultures were treated with 0.625 μM of Hesperadin for 48 hrs. […] The proliferation of HSCs was also evaluated by the MTT staining assay with 3-(4,5-Dimethylthiazol-2-yl)-2,5-diphenyltetrazolium bromide). […] The absorbance (at 570 nm) was measured using a BIORAD 3550 Microplate Reader. […]
(§2) Collagen type-I, -III and -VI, MMP-2, MMP-9 and TIMP-1 gene expression was determined using quantitative real-time PCR. […] Quantitation of mRNA levels was performed using a SYBR® Premix Ex Taq™ Kit (Takara) in an Applied Biosystems 7900HT Fast Real-Time PCR System. To quantify the amount of specific mRNA in the samples, a standard curve was generated for each PCR run using four amounts of the cDNA synthesized from our HSC cultures and liver samples. […] Data was analyzed using a StatView software (Abacus Concepts Inc) with Student's t-test.

[3] = system: cultured bloodstream forms (BF); conditions: read-out: IC50, growth of cultured bloodstream forms (BF); cited from earlier work
[4] = molecular target: human Aurora B kinase; conditions: read-out: IC50 for the prevention of the phosphorylation of substrate; cited from earlier work
[5] = system: MMP-2 gene expression; assay: Real-time RT-PCR in HSC, MMP-2; type: cell-based, human; conditions: 0.625 μM, FIG. 9
Protocol: as §1, §2

[6] = system: collagen 1A1 gene expression; assay: Real-time RT-PCR in HSC, collagen 1A1; type: cell-based, human; conditions: 0.625 μM, FIG. 7
Protocol: as §1, §2

For CCS(=O)(=O)Nc1ccc2c(c1)/C(=C(/Nc1ccc(CN3CCCCC3)cc1)c1ccccc1)C(=O)N2 [Hesperadin, (Z)—N-(2-oxo-3-(Phenyl(4-(piperidin-1-ylmethyl)phenylamino)methylene)indolin-5-yl)ethanesulfonamide], the “collagen type I in histological liver sections” value ([1]; 50 μg/kg i.p. twice a week for two weeks after 6 weeks CCl4, mice) was “less collagen type I evident”, the “collagen type I in histological liver sections” value ([1]; 500 μg/kg i.p. twice a week for two weeks after 6 weeks CCl4, mice) was “less collagen type I evident; also recorded: significantly less collagen staining” and the “quantified intensity of collagen type I staining” value ([1]; 500 μg/kg, FIG. 13, p<0.05) was “significant reduction in collagen type I production and expression”. The “Collagen 3A1 mRNA expression” value [2] was “confirmed by real-time RT-PCR analysis”, the IC50 [3] was 50 nM and the IC50 [4] was 40 nM. For the same molecule, the “MMP-2 mRNA expression” value [5] was “inhibited” and the “Collagen 1A1 mRNA expression” value [6] was “confirmed by real-time RT-PCR analysis”.
